Data: patent US10538521B2, “Pyrimidine derivative having antimalarial activity” (CARNA BIOSCIENCES, INC., priority 2016, dated 2020)
Counter-ions that a name gives are not always drawn. Like-named read-outs stand apart in the source and are kept apart here.

Experiments:
[1] = test system: P. berghei N strain (drug sensitive strain); assay: In vivo antimalarial assay, mouse model infected with rodent malaria; conditions: Plasmodium berghei, ip, 96 h, read-out: Therapeutical Effect (%) inhibition; for inhibition in vivo at 3 mg/kg: 3 mg/kg i.p.
Description: In vivo antimalarial activity of the compound of the present invention was determined using a mouse model infected with rodent malaria P. berghei N strain (drug sensitive strain) by slightly modifying the method described in the above publication of Otoguro et al. (2001) and the method reported by Peters et al. (Peters, W., Portus, J. H. and Robinson, B. L.: The chemotherapy of rodent malaria. XXII. The value of drug-resistant strains of P. berghei in Screening for blood schizonticidal activity. Ann. Trop. Med. Parasitol., 69: 155-171, (1975)). The P. berghei N strain was generous gift from Dr. W. Peters (Northwick Park Institute for Medical Research, Middlesex, United Kingdom).
A group of three ICR male mice (Charles River Laboratories Japan, Inc.) weighing 18 to 20 g was used as a test animal. Using protozoa maintained and sub-cultured by in vivo passage, 2×10^6 parasite-infected erythrocytes were pre pared, and the mice were infected therewith by tail vein injection. For the therapeutic test, a 1-day suppressive test was performed. The day of infection was defined as day 0. Two hours after the infection, a solution of the test compound (solvent: 3% DMSO/0.5% methylcellulose400-solution or suspension) was administered intraperitoneally (i.p.) once to 3 times. On day 4, blood smear preparation was prepared by collecting from the tail vein and the ratio of parasite-infected erythrocytes (parasitaemia) was investigated to determine the therapeutic effect (inhibition percentage) based on the infection rate of the group to which the compound was not administered. The significance test was performed by Dunnett's test.

[2] = test system: FCR3 strain, a drug sensitive strain of Plasmodium falciparum; assay: In vitro antimalarial assay (p-LDH, Malstat), FCR3 strain; assay type: cell-based; conditions: read-out: Antimalarial activity (IC50 value), Strain FCR3
Summary of the method: (§1)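 P. falciparum FCR3 and K1 cultured in human erythrocytes (RPMI 1640, 10% human plasma; 2% hematocrit, 0.5 or 1% parasitaemia) with compound at 12.5 to 0.0001 μM final for 72 h at 37° C (3% O2-4% CO2-93% N2). Growth read as p-LDH activity (Malstat/NBT-PES, A655 nm) after freeze-thaw; IC50 from concentration-response curve.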

[3] = test system: K1 strain, a drug resistant strain of Plasmodium falciparum; assay: In vitro antimalarial assay (p-LDH, Malstat), K1 strain; assay type: cell-based; conditions: read-out: Antimalarial activity (IC50 value), Strain K1
Summary of the method: as §1

[4] = 10 mg/kg i.p., administered once, parasitaemia on day 4, ICR mice
[5] = P. falciparum FCR3 (drug sensitive), 72 h culture, p-LDH readout
[6] = P. falciparum K1 (drug resistant), 72 h culture, p-LDH readout
[7] = 10 mg/kg i.p., administered three times (day 0, 1 and 2), parasitaemia on day 4, ICR mice
[8] = 10 mg/kg i.p., administered twice (day 0 and 1), parasitaemia on day 4, ICR mice

IC50 [2, 5] [nM] | IC50 [3, 6] [nM] | Structure (SMILES) | further results
< 100 | < 100 | Cc1cccc(Nc2nc(Nc3ccn4ccnc4c3)cc(N3CCCCC3)n2)n1 [Example 28, N4-(imidazo[1,2-a]pyridin-7-yl)-N2-(6-methylpyridin-2-yl)-6-(piperidin-1-yl)pyrimidine-2,4-diamine] | inhibition in vivo at 10 mg/kg [1, 4]: 51.4%
< 100 | < 100 | Cc1cc(C)nc(Nc2nc(Nc3ccn4ccnc4c3)cc(N3CCCCC3)n2)c1 [Example 32, N2-(4,6-dimethylpyridin-2-yl)-N4-(imidazo[1,2-a]pyridin-7-yl)-6-(piperidin-1-yl)pyrimidine-2,4-diamine] | inhibition in vivo at 10 mg/kg [1, 4]: 47.5%
100 to 1000 | < 100 | Cc1ccnc(Nc2nc(Nc3ccn4ccnc4c3)cc(N3CCCCC3)n2)c1 [Example 34, N4-(imidazo[1,2-a]pyridin-7-yl)-N2-(4-methylpyridin-2-yl)-6-(piperidin-1-yl)pyrimidine-2,4-diamine] | inhibition in vivo at 10 mg/kg [1, 4]: 51.5%
< 100 | < 100 | CCc1ccnc(Nc2nc(Nc3ccn4ccnc4c3)cc(N3CCOCC3)n2)c1 [Example 68, N2-(4-ethylpyridin-2-yl)-N4-(imidazo [1,2-a]pyridin-7-yl)-6-morpholinopyrimidine-2,4-diamine] | inhibition in vivo at 10 mg/kg [1, 4]: 41.7%
< 100 | < 100 | COc1ccnc(Nc2nc(Nc3ccn4ccnc4c3)cc(N3CCCCC3)n2)c1 [Example 93, N4-(imidazo[1,2-a]pyridin-7-yl)-N2-(4-methoxypyridin-2-yl)-6-(piperidin-1-yl)pyrimidine-2,4-diamine] | inhibition in vivo at 3 mg/kg ([1]; administered twice (day 0 and 1), parasitaemia on day 4, ICR mice): 64.2%
< 100 | < 100 | CCc1ccnc(Nc2nc(Nc3ccn4ccnc4c3)cc(N3CCCC3)n2)c1 [Example 94, N2-(4-ethylpyridin-2-yl)-N4-(imidazo[1,2-a]pyridin-7-yl)-6-(pyrrolidin-1-yl)pyrimidine-2,4-diamine] | inhibition in vivo at 3 mg/kg ([1]; administered once, parasitaemia on day 4, ICR mice): 42.9%
< 100 | < 100 | CCCc1cccc(Nc2nc(Nc3ccn4ccnc4c3)cc(N3CCCCC3)n2)n1 [Example 105, N4-(imidazo[1,2-a]pyridin-7-yl)-6-(piperidin-1-yl)-N2-(6-propylpyridin-2-yl)pyrimidine-2,4-diamine] | inhibition in vivo at 10 mg/kg [1, 4]: 41.9%
< 100 | < 100 | CCCCc1cccc(Nc2nc(Nc3ccn4ccnc4c3)cc(N3CCCCC3)n2)n1 [Example 106, N2-(6-butylpyridin-2-yl)-N4-(imidazo[1,2-a]pyridin-7-yl)-6-(piperidin-1-yl)pyrimidine-2,4-diamine] | inhibition in vivo at 10 mg/kg [1, 7]: 87.4%
< 100 | < 100 | CCc1ccnc(Nc2nc(Nc3ccn4ccnc4c3)cc(N3CCC(OC)CC3)n2)c1 [Example 114, N2-(4-ethylpyridin-2-yl)-N4-(imidazo[1,2-a]pyridin-7-yl)-6-(4-methoxypiperidin-1-yl)pyrimidine-2,4-diamine] | inhibition in vivo at 10 mg/kg [1, 4]: 70.9%
< 100 | < 100 | Cc1cc(C)nc(Nc2nc(Nc3ccn4ccnc4c3)cc(N3CCC(C)(C)C3)n2)c1 [Example 142, N2-(4,6-dimethylpyridin-2-yl)-6-(3,3-dimethylpyrrolidin-1-yl)-N4-(imidazo[1,2-a]pyridin-7-yl)pyrimidine-2,4-diamine] | inhibition in vivo at 10 mg/kg [1, 7]: 84.5%
 |  | Cc1cc(C)nc(Nc2nc(Nc3ccn4ccnc4c3)cc(N3CC(C)C(C)C3)n2)c1 (stereo not drawn) [Example 147, N2-(4,6-dimethylpyridin-2-yl)-6-(3,4-dimethylpyrrolidin-1-yl)-N4-(imidazo[1,2-a]pyridin-7-yl)pyrimidine-2,4-diamine formate] | inhibition in vivo at 10 mg/kg [1]: 83.4%; IC50 ([2]; FCR3, 72 h): < 100 nM; IC50 ([3]; K1, 72 h): < 100 nM
< 100 | < 100 | CC(C)Cc1cccc(Nc2nc(Nc3ccn4ccnc4c3)cc(N3CCCC3)n2)n1 [Example 161, N4-(imidazo[1,2-a]pyridin-7-yl)-N2-(6-isobutylpyridin-2-yl)-6-(pyrrolidin-1-yl)pyrimidine-2,4-diamine] | inhibition in vivo at 10 mg/kg [1, 8]: 64.3%
< 100 | < 100 | CCCCc1cccc(Nc2nc(Nc3ccn4ccnc4c3)cc(N3CCCC3)n2)n1 [Example 165, N2-(6-butylpyridin-2-yl)-N4-(imidazo[1,2-a]pyridin-7-yl)-6-(pyrrolidin-1-yl)pyrimidine-2,4-diamine] | inhibition in vivo at 10 mg/kg [1, 8]: 98%
< 100 | < 100 | CCc1ccnc(Nc2nc(Nc3ccn4ccnc4c3)cc(N3CCC(C)(C)C3)n2)c1 [Example 170, 6-(3,3-dimethylpyrrolidin-1-yl)-N2-(4-ethylpyridin-2-yl)-N4-(imidazo[1,2-a]pyridin-7-yl) pyrimidine-2,4-diamine] | inhibition in vivo at 10 mg/kg [1, 4]: 92.9%
< 100 | < 100 | Cc1cc(C)nc(Nc2nc(Nc3ccn4ccnc4c3)cc(N3CCC4(CCCC4)C3)n2)c1 [Example 174, N2-(4,6-dimethylpyridin-2-yl)-N4-(imidazo[1,2-a]pyridin-7-yl)-6-(2-azaspiro[4.4]nonan-2-yl)pyrimidine-2,4-diamine] | inhibition in vivo at 10 mg/kg [1, 8]: 93.6%
100 to 1000 | 100 to 1000 | CCCCc1cc(CC)cc(Nc2nc(Nc3ccn4ccnc4c3)cc(N3CCCCC3)n2)n1 [Example 201, N2-(6-butyl-4-ethylpyridin-2-yl)-N4-(imidazo[1,2-a]pyridin-7-yl)-6-(piperidin-1-yl) pyrimidine-2,4-diamine] | 
100 to 1000 | 100 to 1000 | Cc1nc(Nc2nc(Nc3ccn4ccnc4c3)cc(N3CCCCC3)n2)ccc1F [Example 202, N2-(5-fluoro-6-methylpyridin-2-yl)-N4-(imidazo[1,2-a]pyridin-7-yl)-6-(piperidin-1-yl) pyrimidine-2,4-diamine] | 
100 to 1000 | 100 to 1000 | Cc1nc(Nc2nc(Nc3ccn4ccnc4c3)cc(N3CCCCC3)n2)ccc1Cl [Example 203, N2-(5-chloro-6-methylpyridin-2-yl)-N4-(imidazo[1,2-a]pyridin-7-yl)-6-(piperidin-1-yl) pyrimidine-2,4-diamine] | 
100 to 1000 | 100 to 1000 | Cc1cc(Nc2nc(Nc3ccn4ccnc4c3)cc(N3CCCCC3)n2)ncc1F [Example 204, N2-(5-fluoro-4-methylpyridin-2-yl)-N4-(imidazo[1,2-a]pyridin-7-yl)-6-(piperidin-1-yl) pyrimidine-2,4-diamine] | 
100 to 1000 | 100 to 1000 | Cc1cc(Cl)cc(Nc2nc(Nc3ccn4ccnc4c3)cc(N3CCCCC3)n2)n1 [Example 205, N2-(4-chloro-6-methylpyridin-2-yl)-N4-(imidazo[1,2-a]pyridin-7-yl)-6-(piperidin-1-yl) pyrimidine-2,4-diamine] | 
< 100 | < 100 | Cc1cc(C)nc(Nc2nc(Nc3ccn4ccnc4c3)cc(NN3CCCC3)n2)c1 [Example 206, N2-(4,6-dimethylpyridin-2-yl)-N4-(imidazo[1,2-a]pyridin-7-yl)-N6-(pyrrolidin-1-yl)pyrimidine-2,4,6-triamine] | 
100 to 1000 | 100 to 1000 | COc1ccnc(Nc2nc(Nc3ccn4ccnc4c3)cc(N3CCC4(CCCC4)C3)n2)c1 [Example 207, N4-(imidazo[1,2-a]pyridin-7-yl)-N2-(4-methoxypyridin-2-yl)-6-(2-azaspiro[4.4]nonan-2-yl) pyrimidine-2,4-diamine] | 
100 to 1000 | 100 to 1000 | CCc1ccnc(Nc2nc(Nc3ccn4ccnc4c3)cc(N3CCC4(CCCC4)C3)n2)c1 [Example 208, N2-(4-ethylpyridin-2-yl)-N4-(imidazo[1,2-a]pyridin-7-yl)-6-(2-azaspiro[4.4]nonan-2-yl) pyrimidine-2,4-diamine] | 
100 to 1000 | 100 to 1000 | COc1ccnc(Nc2nc(Nc3ccn4ccnc4c3)cc(N3CCC(C)(C)C3)n2)c1 [Example 209, 6-(3,3-dimethylpyrrolidin-1-yl)-N4-(imidazo[1,2-a]pyridin-7-yl)-N2-(4-methoxypyridin-2-yl) pyrimidine-2,4-diamine] | 
